Conditions in the first data set: not given
A word on the melting point: it is the temperature, or range, at which the solid turns liquid. In the case of `CNP(=O)(NC)Oc1ccccc1`, the log10 Koc (L/kg) turned out to be 1.51 and the melting point turned out to be 102 °C.
Broadly, the boiling point is the temperature of boiling at a given pressure. For the molecule `FC(F)(Cl)C(Cl)(Cl)C(F)(F)Cl`, the boiling point came to 112 °C and the melting point is -42.9 °C.
On to `Cc1cccc(F)c1`, for which the boiling point was determined as 115 °C, the log10 vapour pressure (mmHg) came to 1.34 and the melting point was -87 °C.
`C[C@@H]1N[C@@H]2CCCCCCCC(=O)O[C@H]3CC[C@@H](CCCCCCCC(=O)O[C@H]1CC2)N[C@H]3C` returned a melting point of 121 °C.
For `C1=CCC=C1`, the boiling point is 41 °C, the log10 vapour pressure (mmHg) worked out at 2.64 and the melting point was -85 °C.
For the molecule `CC1(C)[C@@H](OC(=O)CCC(=O)O)CC[C@]2(C)[C@H]3C(=O)C=C4[C@@H]5C[C@@](C)(C(=O)O)CC[C@]5(C)CC[C@@]4(C)[C@]3(C)CC[C@@H]12`, the melting point amounted to 292 °C.
As for `CCNc1cccc2ccccc12`, the boiling point was 305 °C and the ready biodegradability entry is on record as “not readily biodegradable”.
The molecule `Clc1ccc2ncccc2c1` had a boiling point of 263 °C and a melting point of 43.8 °C.
In turn, `CCCOc1ccc([N+](=O)[O-])cc1NC(C)=O` gave a melting point of 102 °C.
Consider `CCc1ccsc1`, for which the boiling point was 136 °C and the melting point is -89.1 °C.
For the molecule `CCCCCS`, the boiling point is 127 °C, the log10 vapour pressure (mmHg) came out at 1.14 and the melting point was -75.7 °C.
`CCCCCCCCCCCCCCCC(=O)CC` displayed a melting point of 51 °C.
On to `Fc1c(F)c(F)c2c(F)c(F)c(F)c(F)c2c1F`, for which the boiling point was found to be 209 °C and the melting point was found to be 87.5 °C.
Molecule `O=C=Nc1ccc(N=C=O)cc1` returned a boiling point of 260 °C and a melting point of 97.5 °C.
In the case of `CC(C)CCCN`, the boiling point is 125 °C and the melting point was -94.4 °C.
The molecule `C=CCN1CC[C@]23c4c5ccc(O)c4O[C@H]2[C@@H](O)C=C[C@H]3[C@H]1C5` yielded a melting point of 208 °C.
Consider `OCCCCCC(F)(F)F`, for which the boiling point amounted to 166 °C.
In turn, `NC(=S)NS(=O)(=O)c1ccc(N)cc1` came in with a melting point of 182 °C.
Still for that read-out and setting: the result for `Cc1ccccc1Oc1ccccc1[N+](=O)[O-]` reads 39.5 °C.
As for `NC1CCC(CC2CCC(N)CC2)CC1` (stereo unspecified), the boiling point came out at 320 °C and the melting point is 15 °C.
Molecule `CCC1CCCO1` (stereo unspecified) returned a boiling point of 109 °C.
In turn, `CCCCCCNC(=O)c1ccc(O)c(O)c1` displayed a melting point of 140 °C.
As to `CC(C)C(C)N` (stereo unspecified), the boiling point was 85.5 °C and the melting point was -50 °C.
As for `CCC(=O)CO`, the boiling point was determined as 160 °C.
In turn, `CCC(C)C(C)CC` (stereo unspecified) registered a boiling point of 118 °C, a log10 biodegradation half-life (days) of 0.477 and a log10 vapour pressure (mmHg) of 1.34.
For the molecule `C=CCC[C@@H](C)CC`, the boiling point was determined as 113 °C.
In the case of `CN(C)c1cccc(O)c1`, the boiling point was determined as 266 °C and the melting point was 86 °C.
Regarding `CC(COc1ccccc1)NC(C)C(O)c1ccc(O)cc1` (stereo unspecified), the melting point is 103 °C.
As for `Cc1cc(C)c2ncccc2c1`, the boiling point turned out to be 268 °C.
In turn, `Oc1ccc(-c2ccccc2)cc1Cl` showed a melting point of 77 °C.
Turning to `C#CC(C)(C)NC(=O)c1ccc(C(C)C)cc1`, the log10 Koc (L/kg) came out at 2.17.
In the case of `O=C(NO)c1ccccc1`, the melting point is 128 °C.
Take `C=CCOc1ccccc1`: the boiling point was determined as 192 °C.
Molecule `Cc1cc(C)c(Cl)c(C)c1` displayed a boiling point of 205 °C.
As for `C[C@]12CC[C@@H]3c4ccc(O)cc4CC[C@H]3[C@@H]1CCC2=O`, the melting point turned out to be 260 °C.
Turning to `O=C(O)CNC(=O)OCc1ccccc1`, the melting point was 121 °C.
With `C1OCOCO1`, the boiling point is 114 °C, the log10 vapour pressure (mmHg) was 1.24 and the melting point came to 60.2 °C.
Molecule `O=C(c1ccccc1)N1CCCCC1` showed a boiling point of 320 °C and a melting point of 49 °C.
As for `CCN(CC)CCO`, the boiling point amounted to 163 °C, the log10 vapour pressure (mmHg) worked out at 0.146 and the ready biodegradability entry is on record as “not readily biodegradable”.
Take `Cc1cc(CO)c(O)c(CO)c1`: the melting point stood at 129 °C.
`BrC(Br)(Br)c1ccc2ccccc2n1` showed a melting point of 128 °C.
For the molecule `C#CC(OCC)OCC`, the boiling point stood at 139 °C.
Consider `CC1CCCS1` (stereo unspecified), for which the boiling point came to 134 °C and the melting point is -101 °C.
For the molecule `C=CC/C=C/C`, the boiling point amounted to 65 °C, the log10 vapour pressure (mmHg) stood at 2.24 and the melting point was -139 °C.
`NNC(=O)NN` had a melting point of 154 °C.
`CC(=O)Cc1c[nH]c2ccccc12` came in with a melting point of 116 °C.
Take `CC(=O)OCc1cnc(N)c(C#N)n1`: the ready biodegradability result is on record as “readily biodegradable”.
Molecule `Cc1c(NC(=O)C(C)N(C)C)c(=O)n(-c2ccccc2)n1C` (stereo unspecified) registered a melting point of 181 °C.
`CCOC(F)(F)C(F)F` yielded a boiling point of 57.5 °C and a log10 vapour pressure (mmHg) of 2.34.
In the case of `CCCCCCOC(=O)CC`, the boiling point was found to be 190 °C and the melting point was -57.5 °C.
On to `C=Cc1cc(C)ccc1C`, for which the log10 vapour pressure (mmHg) was determined as 0 and the melting point is -35 °C.
The molecule `BrCCOc1ccccc1` came in with a melting point of 39 °C.
`CCCCCCCl` registered a boiling point of 135 °C, a log10 Henry constant (atm·m³/mol) of -1.62, a log10 vapour pressure (mmHg) of 0.972 and a melting point of -94 °C.
In turn, `Cc1ccc(C(N)=O)cc1` registered a log10 Koc (L/kg) of 1.78 and a melting point of 162 °C.
In the case of `CC(=O)Nc1ccc(S(N)(=O)=O)cc1`, the melting point was 220 °C.
In turn, `O=C1NC(=O)C([N+](=O)[O-])C(=O)N1` showed a melting point of 180 °C.
For `Cc1cc(N(C)C)nc(Cl)n1`, the melting point was 87 °C.
`Clc1cccc(Cl)c1` gave a boiling point of 173 °C, a log10 Henry constant (atm·m³/mol) of -2.58, a log10 Koa of 4.12 and a log10 Koc (L/kg) of 2.58. Further, the log10 vapour pressure (mmHg) came to 0.332, the melting point was -24.8 °C and the ready biodegradability entry is given as “not readily biodegradable”.
Molecule `Nc1ccccc1-c1ccccc1N` displayed a log10 vapour pressure (mmHg) of -5.57 and a melting point of 81 °C.
On to `Cc1cc2nc[nH]c2cc1C`, for which the melting point stood at 206 °C.
The molecule `CCC(C)(O)CCCC(C)C` (stereo unspecified) came in with a boiling point of 196 °C and a melting point of 31.5 °C.
Molecule `CC(=O)OC(OC(C)=O)c1ccc([N+](=O)[O-])o1` came in with a melting point of 91 °C.
For `O=[N+]([O-])c1cccc2cnccc12`, the melting point worked out at 110 °C.
In the case of `Nc1ccc2c3c(cccc13)-c1ccccc1-2`, the melting point stood at 116 °C.
In turn, `Nc1cc(C(Cl)=C(Cl)Cl)c(S(N)(=O)=O)cc1S(N)(=O)=O` showed a melting point of 203 °C.
The molecule `CC(=O)S[C@@H]1CC2=CC(=O)CC[C@]2(C)[C@H]2CC[C@@]3(C)[C@@H](CC[C@@]34CCC(=O)O4)[C@H]12` had a melting point of 208 °C.
As to `c1ccc2ncccc2c1`, the boiling point was 237 °C, the log10 Koc (L/kg) is 3.1, the log10 vapour pressure (mmHg) is -1.22 and the melting point was -14.8 °C. The ready biodegradability entry is listed as “readily biodegradable”.
`CCc1cccc(C)c1N` showed a boiling point of 231 °C and a melting point of -33 °C.
As to `O=C(CCc1ccccc1)CCc1ccccc1`, the boiling point came to 352 °C and the melting point turned out to be 13.5 °C.
As to `Oc1cccc(Br)c1`, the boiling point was 236 °C, the melting point stood at 33 °C and the ready biodegradability result was “not readily biodegradable”.
Molecule `Cc1cc(C(C#N)c2ccc(Cl)cc2)c(Cl)cc1NC(=O)c1cc(I)cc(I)c1O` (stereo unspecified) displayed a melting point of 218 °C.
`O=C(O)COc1ccc(Cl)cc1` displayed a melting point of 164 °C.

The same data set, now with this note: fish.
In the case of `CCNc1cccc2ccccc12`, the log10 BCF is 2.32 and the log10 biotransformation half-life (days) is 0.43.
`Clc1ccc2c(c1)oc1c(Cl)cccc12` had a log10 biotransformation half-life (days) of 0.58.
Molecule `Clc1cccc(Cl)c1` returned a log10 BCF of 2.33 and a log10 biotransformation half-life (days) of -0.21.
The like results for `c1ccc2ncccc2c1` were, in that order, 0.58 and -1.33.
Regarding `Oc1cccc(Br)c1`, the log10 BCF was 1.18 and the log10 biotransformation half-life (days) is -0.95.

The values are drawn from the OPERA property sets (Mansouri et al. 2018).
